# Key:
# Gli2 mRNA expression = test: RT-qPCR Gli2 mRNA expression in ASZ001 cells; type: cell-based, mouse; details: 10 μM
# Procedure: (§1) ASZ001 and Sufu-KO cells were seeded in 96-well plates (10,000/well, 100 μL) and incubated overnight under growth conditions. On the second day, ‘growth’ media was removed and replaced by ‘assay’ media (100 μL). On the third day, cells were treated with a serial dilution of drugs or DMSO for 48 h. mRNA expression was determined through Taqman Fast Cells-to-CT Kit (#4399003) per the manufacturer's instructions. In brief, cells were washed with chilled PBS, then mixed with lysis solution containing DNase I and incubated at RT for 5 min. Stop solution was then added to quench the lysis reagents. cDNA was then synthesized through a BioRad MyCycler following addition of reverse transcriptase. Finally, the cDNA was amplified through an ABI 7500 system following addition of Taqman Fast Universal PCR Master Mix and Taqman Gene Expression Primer. Relative gene expression levels were computed by the ΔΔCt method. Values represent mRNA expression relative to DMSO control (set at 1.0). Data were analyzed using GraphPad Prism, and IC50 values are the mean±SEM for at least two separate experiments performed in triplicate. Primers used are as follows: mouse ActB (Mm00607939_s1); mouse GLI1 (Mm00494645_ml); mouse Gli2 (Mm01293117_ml); mouse Ptch1 (Mm00436026_ml); mouse Hhip (Mm00469580_ml).
# GLI2 protein expression = test: Western blot GLI2 protein expression in ASZ001 cells; type: cell-based, murine; details: 25 μM
# Procedure: (§2) ASZ001 cells were plated as described above and treated with drugs or vehicle control. Following incubation, cells were washed with chilled PBS and lysed with RIPA buffer containing […] PMSF protease inhibitor (Thermo Scientific #26978). Supernatant was collected following 15 min centrifugation at 12,000 rpm and 4° C. Protein concentrations from cell extracts were determined through the BCA kit (Pierce #23228) per the manufacturer's instructions. Proteins from either cell lysate or cell-free biochemical assay were then loaded on 12% SDS-PAGE. Following electrophoresis, proteins were transferred onto nitrocellulose membrane at 100 V for 120 min at 4° C. On a clean tray with constant gentle shaking, the membrane was sequentially submerged in 5% BSA for 1 h, and incubated with the primary antibody indicated overnight at 4° C. After washes with TBST, the appropriate secondary antibody was added to the tray for a 2 h incubation at RT. Chemiluminescent detection on film was visualized using ECL reagents (BioRad #1705060) and subsequently quantitated using Image J (http://imagej.nih.gov). Primary antibodies were used at 1:2000 dilution and are as follows: GLI1 (#MA5-32553); Gli2 (#PA5-79314); β-Actin (#PA1-16889). Secondary antibody (Goat anti-Rabbit, #32460) was used at a 1:5000 dilution. All antibodies were purchased from Invitrogen.
# DAOY (MB) = test: MTS anti-proliferative assay in DAOY cells; type: cell-based; details: Table 8, 48 h, mean ± SEM
# Procedure: (§3) Cell viability was assessed by MTS proliferation assay kit (Promega) per manufacturer's protocol. Briefly, 2×10^4 cells were plated in a 96-well plate in 100 μL growth medium to make the cell population at ˜80% confluence. After 24 h, 1 μL drug solution was added to each well. DMSO was used as vehicle compound. After 48 h incubation (37° C., 5% CO2), 20 μL of freshly prepared 3-(4,5-dimethylthiazol-2-yl)-5-(3-carboxymethoxyphenyl)-2-(4-sulfophenyl)-2H-tetrazolium (MTS)/phenazine methosulfate (PMS) solution was added to each well, and the plate was returned to the incubator for 1 h. Absorbance at 490 nm was recorded, and the result was analyzed by GraphPad Prism 5. GI50 values represent mean±SEM for at least two separate experiments performed in triplicate.
# PANC-1 (pancreatic) = test: MTS anti-proliferative assay in PANC-1 cells; type: cell-based; details: Table 8, 48 h, mean ± SEM
# Procedure: as §3
# GLI1-ZFD = biological target: T1, GLI1-ZFD (Homo sapiens, UniProt P08151); test: Microscale thermophoresis (MST) binding to GLI1-ZFD
# T1 construct: GLI1-ZFD Expression and Purification; made in house
# T1 sequence (P08151 234-388 limits assumed): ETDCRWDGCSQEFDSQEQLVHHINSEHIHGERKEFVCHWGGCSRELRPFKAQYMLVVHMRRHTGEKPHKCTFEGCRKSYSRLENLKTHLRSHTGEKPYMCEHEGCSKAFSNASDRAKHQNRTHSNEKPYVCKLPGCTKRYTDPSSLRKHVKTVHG
# Procedure: The protein expression and purification experiments followed the previous reported procedures [C. A. Maschinot, et al., Synthesis and evaluation of third generation vitamin D3 analogues as inhibitors of hedgehog signaling. Euro. J. Med. Chem. 162 (2019) 495-506].
# GLI1 protein labeling was performed through the Monolith Protein Labeling Kit RED-NHS 2nd Generation (Nanotemper #MO-LO11) per the manufacturer's instructions. Briefly, GLI1 (100 μg, 1 mg/mL) underwent buffer exchange to remove incompatible ingredients like Tris or DTT. Proteins in the Labeling Buffer were incubated with freshly prepared dye (˜3-fold excess of dye) for 30 min at RT in the dark. Unreacted ‘free’ dye was removed by a gel-filtration column. Protein concentration and degree-of-labeling were calculated by measuring absorption at 280 nm and 650 nm. For each assay, 200 nM GLI1 in MST Buffer was mixed with compound dilution in DMSO (DMSO<5%, v/v). The mixture was then loaded to a capillary and the thermophoresis was subsequently determined through Monolith NT.115 station. Results were analyzed by MO.Affinity Analysis software and visualized by Graphpad Prism. MST Buffer: 50 mM HEPES, pH 8.3, 100 mM NaCl.
# GLI1 mRNA expression [1] = test: RT-qPCR GLI1 mRNA expression in OHCs-stimulated C3H10T1/2 MEFs; type: cell-based, mouse; details: for % Gli1 Expression: C3H10T1/2 MEFs, 10 μM, relative to Hh-agonist OHCs (set as 100%); for IC50: Mus musculus
# Procedure: as §1
# C3H10T1/2 MEFs were seeded in 24-well plates (50,000/well, 500 μL). Following 24 h incubation, the ‘growth’ media was removed and replaced with ‘assay’ media (500 μL). On the third day, cells were treated with either DMSO, OHCs, or OHCs+drugs. Following a 24 h incubation, gene expression analysis was carried out following identical protocols as described above.
# ASZ001 cells = test: MTS anti-proliferative assay in ASZ001 cells; type: cell-based, murine; details: Table 5, 48 h, Ave ± SEM
# GLI1 mRNA expression [2] = test: RT-qPCR GLI1 mRNA expression in Sufu-KO MEFs; type: cell-based, mouse
# GLI1 mRNA expression [3] = test: RT-qPCR GLI1 mRNA expression in ASZ001 BCC cells; type: cell-based, mouse
# GLI1 protein levels = test: Western blot GLI1 protein expression in ASZ001 cells; type: cell-based, murine; details: 25 μM
# Procedure: as §2
# Ptch1 mRNA expression = test: RT-qPCR Ptch1 mRNA expression in ASZ001 cells; type: cell-based, mouse; details: FIG. 4A
# Procedure: as §1
# Hhip mRNA expression = test: RT-qPCR Hhip mRNA expression in ASZ001 cells; type: cell-based, mouse; details: 10 μM, FIG. 4A
# Procedure: as §1
structure (smiles),measurement,setting,value
CCN(CC)c1ccc(C(Nc2ccccn2)c2ccc3ccc(C)nc3c2O)cc1 (centres unmarked) [Compound 1],"inhibition of Gli2 mRNA expression, rank (in words)",Gli2 mRNA expression,most active
same,GLI2 protein expression (in words),GLI2 protein expression,significantly suppressed
same,GI50,"DAOY (MB); Homo sapiens, Daoy",14.1 ± 2 µM
same,GI50,"PANC-1 (pancreatic); Homo sapiens, PANC-1",21.1 ± 4.2 µM
same,Kd,"GLI1-ZFD; Table 2, mean ± SEM",13.4 ± 4 µM
same,Kd,"GLI1-ZFD; Table 4, mean ± SEM",13.4 ± 4 µM
same,Kd,"GLI1-ZFD; Table 5, Ave ± SEM",13.8 ± 3.4 µM
same,% Gli1 Expression,GLI1 mRNA expression [1]; mean ± SEM,5.9 ± 0.5%
same,IC50,"GLI1 mRNA expression [1]; C3H 10T1/2, Table 2, mean ± SEM, read-out: GLI1 mRNA expression, IC50 C3H10T1/2",0.26 ± 0.16 µM
same,IC50,"GLI1 mRNA expression [1]; C3H 10T1/2, Table 4, racemates and enantiomers, mean ± SEM, read-out: RT-qPCR, IC50 C3H10T1/2",0.26 ± 0.16 µM
same,GI50,"ASZ001 cells; Mus musculus, ASZ001",13.8 ± 3.4 µM
same,IC50,"GLI1 mRNA expression [2]; Mus musculus, Table 2, mean ± SEM, read-out: GLI1 mRNA expression, IC50 Sufu-KO",1.5 ± 0.5 µM
same,IC50,"GLI1 mRNA expression [2]; Mus musculus, Table 4, racemates and enantiomers, mean ± SEM, read-out: RT-qPCR, IC50 Sufu-KO",1.5 ± 0.5 µM
same,IC50,"GLI1 mRNA expression [2]; Mus musculus, Table 5, GLI1 mRNA, Ave ± SEM, read-out: RT-qPCR, IC50 Sufu-KO",1.5 ± 0.5 µM
same,IC50,"GLI1 mRNA expression [3]; Mus musculus, ASZ001, Table 2, mean ± SEM, read-out: GLI1 mRNA expression, IC50 ASZ001",1.3 ± 0.7 µM
same,IC50,"GLI1 mRNA expression [3]; Mus musculus, ASZ001, Table 4, racemates and enantiomers, mean ± SEM, read-out: RT-qPCR, IC50 ASZ001",1.3 ± 0.7 µM
same,IC50,"GLI1 mRNA expression [3]; Mus musculus, ASZ001, Table 5, GLI1 mRNA, Ave ± SEM, read-out: RT-qPCR, IC50 ASZ001",1.3 ± 0.7 µM
same,GLI1 protein levels (in words),GLI1 protein levels,significantly down-regulated
same,Ptch1 mRNA expression (in words),Ptch1 mRNA expression,significantly down-regulated
"CN(C)c1ccccc1CN1CCCN(Cc2ccccc2N(C)C)C1c1ccncc1 [GANT61, reference compound]",GLI2 protein expression (in words),GLI2 protein expression,inactive
same,GI50,DAOY (MB),27.2 ± 3.6 µM
same,GI50,PANC-1 (pancreatic),35.2 ± 7.5 µM
same,Kd,"GLI1-ZFD; Table 5, Ave ± SEM",65.2 ± 15.2 µM
same,% Gli1 Expression,GLI1 mRNA expression [1]; mean ± SEM,72.4 ± 5.6%
same,GI50,ASZ001 cells,57.5 ± 14 µM
same,expression of Hhip mRNA (in words),Hhip mRNA expression,more effective at reducing Hhip expression compared to GLI1
same,IC50,"GLI1 mRNA expression [2]; Table 5, GLI1 mRNA, Ave ± SEM, read-out: RT-qPCR, IC50 Sufu-KO",5.3 ± 1.4 µM
same,IC50,"GLI1 mRNA expression [3]; Table 5, GLI1 mRNA, Ave ± SEM, read-out: RT-qPCR, IC50 ASZ001",11.1 ± 1.5 µM
same,GLI1 protein levels (in words),GLI1 protein levels,significantly down-regulated
